# Read-outs that look alike come from different tables or passages of the source.
# Tests used:
# Assay in all cases: Radiolabeled ATP kinase assay, panel of 60 kinases (Table S5)
# Format in all cases: biochemical
# [1] = molecular target: T1, panel of 60 human kinases (Homo sapiens, UniProt Q9Y4K4); settings: KHS/MAPK4K5; 0.1 μM; 10 μM ATP; read-out: % Enzyme Activity (relative to DSMO controls)
# T1 construct: purchased Reaction Biology Corp
# How it was run: (§1)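 Compounds at two concentrations, 0.1 μM and 0.5 μM, were screened for inhibition of 60 kinases in cell-free assays read out by radiolabeled ATP.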
# [2] = molecular target: T2, panel of 60 human kinases (Homo sapiens, UniProt Q96GD4); settings: Aurora B; 0.1 μM; 10 μM ATP; read-out: % Enzyme Activity (relative to DSMO controls)
# T2 construct: purchased Reaction Biology Corp
# How it was run: as §1
# [3] = molecular target: T3, panel of 60 human kinases (Homo sapiens, UniProt O94921); settings: CDK14/cyclin Y (PFTK1); 0.1 μM; 10 μM ATP; read-out: % Enzyme Activity (relative to DSMO controls)
# T3 construct: purchased Reaction Biology Corp
# How it was run: as §1
# [4] = molecular target: T4, panel of 60 human kinases (Homo sapiens, UniProt Q15759); settings: P38b/MAPK11; 0.1 μM; 10 μM ATP; read-out: % Enzyme Activity (relative to DSMO controls)
# T4 construct: purchased Reaction Biology Corp
# How it was run: as §1
# [5] = molecular target: T5, panel of 60 human kinases (Homo sapiens, UniProt Q8N4C8); settings: MINK/MINK1; 0.1 μM; 10 μM ATP; read-out: % Enzyme Activity (relative to DSMO controls)
# T5 construct: purchased Reaction Biology Corp
# How it was run: as §1
# [6] = molecular target: T6, panel of 60 human kinases (Homo sapiens, UniProt Q13627); settings: DYRK/RK1A; 0.1 μM; 10 μM ATP; read-out: % Enzyme Activity (relative to DSMO controls)
# T6 construct: purchased Reaction Biology Corp
# How it was run: as §1
# [7] = molecular target: T7, panel of 60 human kinases (Homo sapiens, UniProt Q16539); settings: P38a/MAPK14; 0.1 μM; 10 μM ATP; read-out: % Enzyme Activity (relative to DSMO controls)
# T7 construct: purchased Reaction Biology Corp
# How it was run: as §1
# [8] = molecular target: T8, panel of 60 human kinases (Homo sapiens, UniProt Q00526); settings: CDK3/cyclin E; 0.1 μM; 10 μM ATP; read-out: % Enzyme Activity (relative to DSMO controls)
# T8 construct: purchased Reaction Biology Corp
# How it was run: as §1
# [9] = molecular target: T9, panel of 60 human kinases (Homo sapiens, UniProt Q00537); settings: CDK17/cyclin Y (PCTK2); 0.1 μM; 10 μM ATP; read-out: % Enzyme Activity (relative to DSMO controls)
# T9 construct: purchased Reaction Biology Corp
# How it was run: as §1
# [10] = molecular target: T10, panel of 60 human kinases (Homo sapiens, UniProt Q9H2K8); settings: TAOK3/JIK; 0.1 μM; 10 μM ATP; read-out: % Enzyme Activity (relative to DSMO controls)
# T10 construct: purchased Reaction Biology Corp
# T10 sequence (Q9H2K8 1-898): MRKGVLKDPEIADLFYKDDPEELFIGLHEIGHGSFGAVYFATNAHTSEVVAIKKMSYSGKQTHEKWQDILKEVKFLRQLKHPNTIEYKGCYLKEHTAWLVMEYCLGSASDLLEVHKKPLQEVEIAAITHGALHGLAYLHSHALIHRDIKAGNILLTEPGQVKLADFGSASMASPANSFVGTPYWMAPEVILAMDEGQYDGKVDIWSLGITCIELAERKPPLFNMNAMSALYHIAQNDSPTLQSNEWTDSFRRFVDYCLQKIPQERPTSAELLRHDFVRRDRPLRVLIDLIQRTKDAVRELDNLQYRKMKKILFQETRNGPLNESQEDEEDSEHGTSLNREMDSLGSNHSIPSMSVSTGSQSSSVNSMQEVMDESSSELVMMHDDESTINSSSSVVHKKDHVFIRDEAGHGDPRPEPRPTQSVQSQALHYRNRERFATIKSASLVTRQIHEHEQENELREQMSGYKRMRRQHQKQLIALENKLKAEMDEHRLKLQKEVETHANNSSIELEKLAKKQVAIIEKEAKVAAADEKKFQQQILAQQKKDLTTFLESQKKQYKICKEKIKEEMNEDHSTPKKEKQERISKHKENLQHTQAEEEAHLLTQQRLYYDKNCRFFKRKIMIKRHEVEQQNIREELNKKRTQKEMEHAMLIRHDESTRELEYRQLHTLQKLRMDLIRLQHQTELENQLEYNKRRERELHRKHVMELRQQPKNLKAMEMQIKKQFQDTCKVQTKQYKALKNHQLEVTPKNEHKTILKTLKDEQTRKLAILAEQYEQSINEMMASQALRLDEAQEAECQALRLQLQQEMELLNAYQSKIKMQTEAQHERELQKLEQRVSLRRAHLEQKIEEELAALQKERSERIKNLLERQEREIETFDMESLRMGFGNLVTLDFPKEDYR
# How it was run: as §1
# [11] = molecular target: T11, panel of 60 human kinases (Homo sapiens, UniProt P50750); settings: 0.1 μM, 10 μM ATP, read-out: % Enzyme Activity (relative to DSMO controls)
# T11 construct: purchased Reaction Biology Corp
# How it was run: as §1
# [12] = molecular target: T12, panel of 60 human kinases (Homo sapiens, UniProt P35916); settings: FLT4/VEGFR3; 0.1 μM; 10 μM ATP; read-out: % Enzyme Activity (relative to DSMO controls)
# T12 construct: purchased Reaction Biology Corp
# How it was run: as §1
# T11 sequence (P50750 whole entry): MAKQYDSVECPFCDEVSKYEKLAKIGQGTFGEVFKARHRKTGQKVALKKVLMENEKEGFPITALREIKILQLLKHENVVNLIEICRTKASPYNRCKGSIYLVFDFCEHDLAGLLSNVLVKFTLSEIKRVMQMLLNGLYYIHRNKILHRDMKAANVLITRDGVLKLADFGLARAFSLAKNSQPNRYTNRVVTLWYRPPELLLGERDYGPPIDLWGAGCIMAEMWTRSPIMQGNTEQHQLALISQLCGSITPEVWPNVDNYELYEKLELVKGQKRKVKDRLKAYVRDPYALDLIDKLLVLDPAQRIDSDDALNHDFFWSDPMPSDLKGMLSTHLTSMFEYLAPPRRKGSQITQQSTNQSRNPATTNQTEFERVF
# T2 sequence (Q96GD4 whole entry): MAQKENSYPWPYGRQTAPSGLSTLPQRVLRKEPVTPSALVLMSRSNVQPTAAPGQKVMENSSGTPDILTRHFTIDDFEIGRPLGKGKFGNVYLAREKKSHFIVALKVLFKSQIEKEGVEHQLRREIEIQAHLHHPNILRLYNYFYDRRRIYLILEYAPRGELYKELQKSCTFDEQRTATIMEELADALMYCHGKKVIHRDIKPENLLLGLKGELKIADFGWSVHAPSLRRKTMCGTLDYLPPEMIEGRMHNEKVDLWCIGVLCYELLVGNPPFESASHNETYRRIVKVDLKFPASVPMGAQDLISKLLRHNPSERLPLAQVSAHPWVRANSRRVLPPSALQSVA
# T3 sequence (O94921 whole entry): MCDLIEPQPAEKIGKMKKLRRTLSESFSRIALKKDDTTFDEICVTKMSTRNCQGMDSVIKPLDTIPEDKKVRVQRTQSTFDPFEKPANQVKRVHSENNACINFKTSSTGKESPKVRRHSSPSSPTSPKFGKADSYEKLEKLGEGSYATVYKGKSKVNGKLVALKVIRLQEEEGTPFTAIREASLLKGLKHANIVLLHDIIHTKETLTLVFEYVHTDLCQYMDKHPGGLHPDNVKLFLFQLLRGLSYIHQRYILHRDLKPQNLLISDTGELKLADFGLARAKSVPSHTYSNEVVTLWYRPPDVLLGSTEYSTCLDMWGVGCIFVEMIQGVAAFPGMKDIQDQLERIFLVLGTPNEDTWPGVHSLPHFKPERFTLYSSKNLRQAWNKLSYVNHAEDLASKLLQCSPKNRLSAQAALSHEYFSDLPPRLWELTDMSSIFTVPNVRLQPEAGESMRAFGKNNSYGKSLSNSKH
# T8 sequence (Q00526 whole entry): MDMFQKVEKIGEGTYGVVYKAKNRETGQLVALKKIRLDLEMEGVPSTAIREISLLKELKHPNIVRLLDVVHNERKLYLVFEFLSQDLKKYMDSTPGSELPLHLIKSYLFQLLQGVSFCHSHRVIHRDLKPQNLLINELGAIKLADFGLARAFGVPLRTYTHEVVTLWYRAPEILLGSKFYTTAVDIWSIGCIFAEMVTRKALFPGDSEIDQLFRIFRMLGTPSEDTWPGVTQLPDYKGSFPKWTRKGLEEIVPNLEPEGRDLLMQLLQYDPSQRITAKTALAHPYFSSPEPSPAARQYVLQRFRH
# T12 sequence (P35916 25-1363): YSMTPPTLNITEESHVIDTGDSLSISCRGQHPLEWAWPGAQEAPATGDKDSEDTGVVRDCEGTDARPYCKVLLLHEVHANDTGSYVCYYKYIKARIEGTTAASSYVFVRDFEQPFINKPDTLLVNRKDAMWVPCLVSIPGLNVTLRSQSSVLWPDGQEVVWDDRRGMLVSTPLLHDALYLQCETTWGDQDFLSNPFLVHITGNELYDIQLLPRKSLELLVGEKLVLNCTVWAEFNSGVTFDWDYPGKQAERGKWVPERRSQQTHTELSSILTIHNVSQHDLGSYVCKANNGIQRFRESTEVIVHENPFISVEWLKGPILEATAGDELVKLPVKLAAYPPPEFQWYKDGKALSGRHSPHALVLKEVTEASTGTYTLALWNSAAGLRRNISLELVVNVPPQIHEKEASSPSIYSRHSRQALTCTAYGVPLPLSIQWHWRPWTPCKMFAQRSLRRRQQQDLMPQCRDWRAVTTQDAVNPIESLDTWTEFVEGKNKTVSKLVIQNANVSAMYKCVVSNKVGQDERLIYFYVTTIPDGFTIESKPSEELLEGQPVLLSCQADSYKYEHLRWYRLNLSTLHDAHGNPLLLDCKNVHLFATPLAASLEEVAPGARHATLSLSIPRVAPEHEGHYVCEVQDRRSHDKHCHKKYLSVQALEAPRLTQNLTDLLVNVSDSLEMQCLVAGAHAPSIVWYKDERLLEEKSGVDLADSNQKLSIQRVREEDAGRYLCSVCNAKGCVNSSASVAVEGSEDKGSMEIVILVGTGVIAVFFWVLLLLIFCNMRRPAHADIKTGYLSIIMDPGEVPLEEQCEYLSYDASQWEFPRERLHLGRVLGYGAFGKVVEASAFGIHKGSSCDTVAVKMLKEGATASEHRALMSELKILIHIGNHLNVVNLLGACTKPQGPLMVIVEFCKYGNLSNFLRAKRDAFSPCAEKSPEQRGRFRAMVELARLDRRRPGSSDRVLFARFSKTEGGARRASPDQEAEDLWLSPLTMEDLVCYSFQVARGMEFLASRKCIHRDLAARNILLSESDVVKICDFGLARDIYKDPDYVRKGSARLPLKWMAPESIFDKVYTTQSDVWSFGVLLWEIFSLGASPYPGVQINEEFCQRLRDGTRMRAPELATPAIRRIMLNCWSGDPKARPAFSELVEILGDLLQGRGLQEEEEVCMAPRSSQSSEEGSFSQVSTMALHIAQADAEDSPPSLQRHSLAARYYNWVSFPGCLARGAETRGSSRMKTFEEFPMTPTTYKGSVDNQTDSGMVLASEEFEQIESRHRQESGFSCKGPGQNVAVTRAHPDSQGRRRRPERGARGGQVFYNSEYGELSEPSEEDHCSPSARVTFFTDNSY
# T9 sequence (Q00537 whole entry): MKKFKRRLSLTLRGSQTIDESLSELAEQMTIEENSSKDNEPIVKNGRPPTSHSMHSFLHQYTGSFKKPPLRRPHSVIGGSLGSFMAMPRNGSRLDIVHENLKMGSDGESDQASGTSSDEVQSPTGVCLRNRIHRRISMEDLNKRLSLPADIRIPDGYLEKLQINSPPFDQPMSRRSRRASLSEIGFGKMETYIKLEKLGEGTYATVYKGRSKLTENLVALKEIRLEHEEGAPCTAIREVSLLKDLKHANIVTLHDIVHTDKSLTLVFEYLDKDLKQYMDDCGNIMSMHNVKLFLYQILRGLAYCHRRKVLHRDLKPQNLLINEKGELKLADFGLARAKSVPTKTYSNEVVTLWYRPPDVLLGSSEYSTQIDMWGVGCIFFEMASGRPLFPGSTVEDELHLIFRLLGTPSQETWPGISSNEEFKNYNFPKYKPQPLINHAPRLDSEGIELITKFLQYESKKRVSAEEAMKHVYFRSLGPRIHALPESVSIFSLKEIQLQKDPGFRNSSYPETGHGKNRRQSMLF
# T5 sequence (Q8N4C8 whole entry): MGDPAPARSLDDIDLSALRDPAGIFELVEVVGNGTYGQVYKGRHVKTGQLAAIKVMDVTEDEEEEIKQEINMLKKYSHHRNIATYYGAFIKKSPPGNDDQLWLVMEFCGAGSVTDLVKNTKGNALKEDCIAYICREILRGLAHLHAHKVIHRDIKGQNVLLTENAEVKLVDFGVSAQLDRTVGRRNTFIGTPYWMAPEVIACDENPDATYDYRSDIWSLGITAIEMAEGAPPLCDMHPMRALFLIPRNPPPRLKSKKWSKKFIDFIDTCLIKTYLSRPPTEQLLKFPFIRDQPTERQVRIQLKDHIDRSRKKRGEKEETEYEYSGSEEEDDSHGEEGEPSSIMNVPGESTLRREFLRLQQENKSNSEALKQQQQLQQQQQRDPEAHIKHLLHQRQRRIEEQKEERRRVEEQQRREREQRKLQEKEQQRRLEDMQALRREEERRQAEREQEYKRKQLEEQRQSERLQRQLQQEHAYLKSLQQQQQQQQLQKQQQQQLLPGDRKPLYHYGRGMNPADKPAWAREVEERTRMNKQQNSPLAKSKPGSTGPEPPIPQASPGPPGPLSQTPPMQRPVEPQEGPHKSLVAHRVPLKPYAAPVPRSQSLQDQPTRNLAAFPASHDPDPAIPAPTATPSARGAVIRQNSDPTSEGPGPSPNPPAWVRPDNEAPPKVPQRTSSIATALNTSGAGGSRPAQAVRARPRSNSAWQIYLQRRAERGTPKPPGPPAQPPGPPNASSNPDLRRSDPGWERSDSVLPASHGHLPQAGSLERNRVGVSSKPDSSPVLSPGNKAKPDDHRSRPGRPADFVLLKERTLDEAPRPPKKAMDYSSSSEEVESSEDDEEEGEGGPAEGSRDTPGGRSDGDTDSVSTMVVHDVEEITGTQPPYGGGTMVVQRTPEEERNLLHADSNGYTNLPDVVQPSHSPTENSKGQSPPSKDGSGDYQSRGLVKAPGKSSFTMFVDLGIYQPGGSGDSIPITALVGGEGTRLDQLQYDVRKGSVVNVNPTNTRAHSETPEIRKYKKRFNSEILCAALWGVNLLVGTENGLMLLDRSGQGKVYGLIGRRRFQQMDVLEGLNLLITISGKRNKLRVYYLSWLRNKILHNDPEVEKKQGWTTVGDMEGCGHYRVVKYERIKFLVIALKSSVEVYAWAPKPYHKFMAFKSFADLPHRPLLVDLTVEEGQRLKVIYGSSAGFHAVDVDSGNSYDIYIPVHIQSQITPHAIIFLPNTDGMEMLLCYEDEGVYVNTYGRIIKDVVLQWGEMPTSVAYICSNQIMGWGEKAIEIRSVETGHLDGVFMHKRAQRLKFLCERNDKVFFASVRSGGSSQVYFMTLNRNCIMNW
# T7 sequence (Q16539 whole entry): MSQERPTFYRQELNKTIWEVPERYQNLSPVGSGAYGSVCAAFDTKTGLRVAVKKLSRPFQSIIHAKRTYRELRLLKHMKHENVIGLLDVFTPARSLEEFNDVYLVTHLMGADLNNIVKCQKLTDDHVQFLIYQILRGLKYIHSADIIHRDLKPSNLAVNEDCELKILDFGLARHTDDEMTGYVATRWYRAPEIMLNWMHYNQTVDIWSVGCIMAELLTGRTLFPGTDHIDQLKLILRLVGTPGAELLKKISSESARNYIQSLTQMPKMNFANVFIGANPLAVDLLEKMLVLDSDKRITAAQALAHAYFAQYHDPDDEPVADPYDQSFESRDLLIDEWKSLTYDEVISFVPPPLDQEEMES
Structure (SMILES),remaining activity at 0.1 µM [1] [%],remaining activity at 0.1 µM [2] [%],remaining activity at 0.1 µM [3] [%],remaining activity at 0.1 µM [4] [%],remaining activity at 0.1 µM [5] [%],remaining activity at 0.1 µM [6] [%],remaining activity at 0.1 µM [7] [%],remaining activity at 0.1 µM [8] [%],remaining activity at 0.1 µM [9] [%],remaining activity at 0.1 µM [10] [%],remaining activity at 0.1 µM ([11]; CDK9/cyclin K) [%],remaining activity at 0.1 µM ([11]; CDK9/cyclin T1) [%],remaining activity at 0.1 µM ([11]; CDK9/cyclin T2) [%],remaining activity at 0.1 µM [12] [%]
"Cc1nn(C)c(C)c1-c1c[nH]c2ncc(-c3ccc(CN4CCN(C)CC4)cc3)cc12 [Compound 7ai, 5-(4-((4-Methylpiperazin-1-yl)methyl)phenyl)-3-(1,3,5-trimethyl-1H-pyrazol-4-yl)-1H-pyrrolo[2,3-b]pyridine]",16.5,99,83.9,104,7.8,41.7,98.2,96,69.4,102,99.7,85.8,84.8,60.3
"COc1ccccc1-c1c[nH]c2ncc(-c3ccc(CN4CCN(C)CC4)cc3)cc12 [Compound 7at, 3-(2-Methoxyphenyl)-5-(4-((4-methylpiperazin-1-yl)methyl)phenyl)-1H-pyrrolo[2,3-b]pyridine]",3.35,87.8,76.4,97.7,9.84,57.4,96.2,72.7,69.7,65.5,79.5,46.3,37.4,79.8
"CN1CCN(Cc2ccc(-c3cnc4[nH]cc(-c5ccc6[nH]ccc6c5)c4c3)cc2)CC1 [Compound 1, 3-(1H-Indol-5-yl)-5-(4-((4-methylpiperazin-1-yl)methyl)phenyl)-1H-pyrrolo[2,3-b]pyridine, reference compound]",11,88.8,88.2,104,5.53,41,108,89.1,66.1,84,102,96.6,98.1,34.5
"CN1CCN(Cc2ccc(-c3cnc4[nH]cc(-c5cnn(Cc6ccccc6)c5)c4c3)cc2)CC1 [Compound 7ah, 3-(1-Benzyl-1H-pyrazol-4-yl)-5-(4-((4-methylpiperazin-1-yl)methyl)phenyl)-1H-pyrrolo[2,3-b]pyridine]",6.09,69.9,30.1,101,5.06,4.52,109,65.2,7.55,77.4,93.3,57.8,82.7,34
"CN1CCN(Cc2ccc(-c3cnc4[nH]cc(-c5ccc6c(c5)OCCO6)c4c3)cc2)CC1 [Compound 7d, 3-(2,3-Dihydrobenzo[b][1,4]dioxin-6-yl)-5-(4-((4-methylpiperazin-1-yl)methyl)phenyl)-1H-pyrrolo[2,3-b]pyridine]",4.17,83.5,66.3,101,6.69,3.15,102,76.7,41.1,67.9,95.8,85.5,93.7,39
"CN1CCN(Cc2ccc(-c3cnc4[nH]cc(-c5ccoc5)c4c3)cc2)CC1 [Compound 7w, 3-(Furan-3-yl)-5-(4-((4-methylpiperazin-1-yl)methyl)phenyl)-1H-pyrrolo[2,3-b]pyridine]",15.1,89.9,83.8,99.3,3.72,71.2,110,93.7,61.4,95.2,97.8,96.1,65.6,64.6
"CN1CCN(Cc2ccc(-c3cnc4[nH]cc(-c5cccc(Cl)c5)c4c3)cc2)CC1 [Compound 7ad, 3-(3-Chlorophenyl)-5-(4-((4-methylpiperazin-1-yl)methyl)phenyl)-1H-pyrrolo[2,3-b]pyridine]",5.8,91.8,92.5,103,3.06,53.4,105,95.5,70.4,92,99.7,78,95.2,80.5
"CN1CCN(Cc2ccc(-c3cnc4[nH]cc(-c5ccncc5)c4c3)cc2)CC1 [Compound 7n, 5-(4-((4-Methylpiperazin-1-yl)methyl)phenyl)-3-(pyridin-4-yl)-1H-pyrrolo[2,3-b]pyridine]",30.9,86.9,35,101,38.8,40.3,101,72.3,10.7,94.9,83.4,47.9,38.8,66

# From patent US12227500B2, “Substituted pyrrolo[2,3-b]pyridines for suppressing toxic endoplasmic reticulum stress” (THE TRUSTEES OF COLUMBIA UNIVERSITY IN THE CITY OF NEW YORK, priority 2018, dated 2025)
